Experimental data as given in patent US20170008888A1 (KYORIN PHARMACEUTICAL CO., LTD., priority 2014, published 2017).

Tests used:
[1] = biological target: T1, recombinant human ERK5 catalytic domain (Homo sapiens, UniProt Q13164); assay: Recombinant human ERK5 radiometric (HotSpot) assay; assay type: biochemical; details: 10 μM ATP, 20 μM myelin basic protein substrate; read-out: rhERK5 IC50
T1 construct: Recombinant human ERK5 catalytic domain radiometric assays; purchased Reaction Biology, Corp (Malvern, Pa.), which ran the assay as a service
T1 sequence (Q13164 55-347 limits assumed): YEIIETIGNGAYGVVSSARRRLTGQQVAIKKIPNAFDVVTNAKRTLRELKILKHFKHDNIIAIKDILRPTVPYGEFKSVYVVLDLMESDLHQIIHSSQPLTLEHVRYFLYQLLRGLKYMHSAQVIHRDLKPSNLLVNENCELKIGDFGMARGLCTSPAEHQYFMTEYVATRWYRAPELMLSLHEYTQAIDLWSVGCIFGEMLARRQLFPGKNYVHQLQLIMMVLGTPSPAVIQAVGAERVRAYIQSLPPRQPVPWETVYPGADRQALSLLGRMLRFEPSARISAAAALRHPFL
Protocol: In this example, potency of the compounds in recombinant human ERK5 was assayed.
Recombinant human ERK5 catalytic domain radiometric assays were performed by Reaction Biology, Corp (Malvern, Pa.). The HotSpot radiometric assay is based on conventional filter-binding assays (Nature Biotechnology (2011) 29: 1039-1045). Compounds were tested at 20 μM down by ⅓ in a 10 point serial dilution series. Briefly, [γ-33P]-ATP was used as the tracer along with 10 μM cold ATP to label ERK5 in the presence of 20 μM myelin basic protein substrate.

AurA = biological target: T2, AurA (Homo sapiens, UniProt O14965); assay: Probe-based (AX9989) kinase profiling in Jurkat lysate: AurA; assay type: binding; details: read-out: AurA Inhibition % at indicated screening concentration; for inhibition at 1 µM: screening concentration 1 μM; for inhibition at 10 µM: screening concentration 10 μM
T2 construct: screened for activity against several kinases in Jurkat cells; endogenous in cells; host or cells: Jurkat cell lysate
T2 sequence (O14965 1-403): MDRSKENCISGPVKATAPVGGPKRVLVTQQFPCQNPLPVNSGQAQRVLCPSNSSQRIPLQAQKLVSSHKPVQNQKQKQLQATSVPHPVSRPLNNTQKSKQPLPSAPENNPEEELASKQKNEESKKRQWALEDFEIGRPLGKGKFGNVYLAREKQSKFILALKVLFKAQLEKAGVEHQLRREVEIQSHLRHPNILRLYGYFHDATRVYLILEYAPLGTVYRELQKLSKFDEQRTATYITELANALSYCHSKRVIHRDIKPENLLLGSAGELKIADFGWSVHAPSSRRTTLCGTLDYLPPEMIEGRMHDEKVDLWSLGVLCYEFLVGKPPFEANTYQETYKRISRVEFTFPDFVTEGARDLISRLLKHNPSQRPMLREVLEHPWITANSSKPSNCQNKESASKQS
Outline: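 Jurkat lysate, HEPES pH 7.5 buffer + 20 mM MnCl2; cpd 15 min RT; AX9989 ATP probe 5 μM final, RT. Trypsin digest, streptavidin capture, LC/MS; % inhibition vs vehicle from labeled-peptide signal.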

| SMILES | IC50 [1] [µM] | inhibition at 1 µM (AurA) [%] | inhibition at 10 µM (AurA) [%] |
| --- | --- | --- | --- |
| CCOc1cc(C(=O)N2CCN(C3CCN(C)CC3)CC2)ccc1Nc1cc2c(cn1)N(C)C(=O)c1ccccc1N2C [Compound T8] | < 0.02 | ≤ 35 | – |
| CCOc1cc(C(=O)N2CC[C@@H](NCCF)C2)ccc1Nc1cc2c(cn1)N(C)C(=O)c1ccccc1N2C [Compound T9] | 0.02 to 0.05 | ≤ 35 | – |
| CCOc1cc(C(=O)N2CCC(N3CC[C@@H](O)C3)CC2)ccc1Nc1cc2c(cn1)N(C)C(=O)c1ccccc1N2C [Compound T10] | 0.02 to 0.05 | ≤ 35 | – |
| CCOc1cc(C(=O)N2CCC(N3CC[C@H](O)C3)CC2)ccc1Nc1cc2c(cn1)N(C)C(=O)c1ccccc1N2C [Compound T11] | 0.02 to 0.05 | ≤ 35 | – |
| CCOc1cc(C(=O)N2CCN(CCN(C)C)CC2)ccc1Nc1cc2c(cn1)N(C)C(=O)c1ccccc1N2C [Compound T14] | 0.02 to 0.05 | ≤ 35 | – |
| CCOc1cc(C(=O)N2CCN(CCN3CCOCC3)CC2)ccc1Nc1cc2c(cn1)N(C)C(=O)c1ccccc1N2C [Compound T15] | 0.02 to 0.05 | ≤ 35 | – |
| CCOc1cc(C(=O)N2CCN(C(C)=O)CC2)ccc1Nc1cc2c(cn1)N(C)C(=O)c1ccccc1N2C [Compound T18] | 0.02 to 0.05 | ≤ 35 | – |
| CCOc1cc(C(=O)N2CC[C@@H](N3CCN(C)CC3)C2)ccc1Nc1cc2c(cn1)N(C)C(=O)c1ccccc1N2C [Compound T20] | 0.02 to 0.05 | ≤ 35 | – |
| CCOc1cc(C(=O)N2CC[C@H](C#N)C2)ccc1Nc1cc2c(cn1)N(C)C(=O)c1ccccc1N2C [Compound T22] | 0.05 to 0.2 | ≤ 35 | – |
| CCOc1cc(C(=O)N2CCC(N3CCCN(C)CC3)CC2)ccc1Nc1cc2c(cn1)N(C)C(=O)c1ccccc1N2C [Compound T31] | < 0.02 | ≤ 35 | – |
| CN1CCN(C2CCN(C(=O)c3ccc(Nc4cc5c(cn4)N(C)C(=O)c4ccccc4N5C)c(OCCF)c3)CC2)CC1 [Compound T34] | < 0.02 | ≤ 35 | – |
| CCOc1cc(C(=O)N2CCC(NC3CCN(C)CC3)C2)ccc1Nc1cc2c(cn1)N(C)C(=O)c1ccccc1N2C (stereo not shown) [Compound T42] | 0.05 to 0.2 | ≤ 35 | – |
| CCOc1cc(C(=O)N2CCC(N3CCN(C)CC3)CC2)ccc1Nc1cc2c(cn1)N(C)C(C(F)(F)F)c1ccccc1N2C (stereo not shown) [Compound T47] | > 0.2 | – | ≤ 35 |
| CC(C)Oc1cc(C(=O)N2CCC[C@H](O)C2)ccc1Nc1cc2c(cn1)N(C)C(=O)c1ccccc1N2C [Compound T48] | 0.05 to 0.2 | – | ≤ 35 |
| CC(C)Oc1cc(C(=O)N2CCN(C3CCN(C)CC3)CC2)ccc1Nc1cc2c(cn1)N(C)C(=O)c1ccccc1N2C [Compound T49] | 0.05 to 0.2 | ≤ 35 | – |
| CC(C)Oc1cc(C(=O)N2CC[C@@H](NCCF)C2)ccc1Nc1cc2c(cn1)N(C)C(=O)c1ccccc1N2C [Compound T50] | 0.05 to 0.2 | ≤ 35 | – |
| CCOc1cc(C(=O)N2CCC(NCCF)C2)ccc1Nc1cc2c(cn1)N(C)C(C(F)(F)F)c1ccccc1N2C (stereo not shown) [Compound T54] | > 0.2 | – | ≤ 35 |
| CCOc1cc(C(=O)N2CCN(c3cccnc3)CC2)ccc1Nc1cc2c(cn1)N(C)C(=O)c1occc1N2C [Compound T56] | < 0.02 | ≤ 35 | – |
| CCOc1cc(C(=O)N[C@H]2CC[C@H](O)CC2)ccc1Nc1cc2c(cn1)N(C)C(=O)c1ccccc1N2C [Compound T62] | > 0.2 | ≤ 35 | – |
| CCOc1cc(C(=O)N[C@H]2CC[C@@H](O)CC2)ccc1Nc1cc2c(cn1)N(C)C(=O)c1ccccc1N2C [Compound T63] | > 0.2 | ≤ 35 | – |
| CN1C(=O)c2c(F)cccc2Oc2cc(N[C@H]3CC[C@H](O)CC3)ncc21 [Compound T92] | 0.05 to 0.2 | – | ≤ 35 |
| COc1cccc2c1Oc1cc(N[C@H]3CC[C@H](O)CC3)ncc1N(C)C2=O [Compound T95] | > 0.2 | – | ≤ 35 |
| CN1C(=O)c2c(F)ccc(F)c2Oc2cc(N[C@H]3CC[C@H](O)CC3)ncc21 [Compound T97] | > 0.2 | – | ≤ 35 |
| CCOc1cc(C(=O)N2CCN(C3CCN(C)CC3)CC2)ccc1Nc1cc2c(cn1)N(C)C(=O)c1ccccc1O2 [Compound T98] | 0.02 to 0.05 | – | ≤ 35 |
| CCOc1cc(C(=O)N2CCN(C3CCN(C)CC3)CC2)ccc1Nc1cc2c(cn1)N(C)C(=O)c1c(F)cccc1O2 [Compound T102] | 0.02 to 0.05 | – | ≤ 35 |
| C[C@@H]1C[C@H](Nc2cc3c(cn2)N(C)C(=O)c2ccccc2N3C)CC[C@H]1O [Compound T115] | > 0.2 | – | ≤ 35 |
